# Test results: ChEMBL document CHEMBL4152360 (Bioorg Med Chem, 2018)
# Legend:
# [1] = target: AMP-activated protein kinase, AMPK (Homo sapiens) (UniProt P54646+O43741+P54619+Q9UGJ0+Q9Y478+Q13131+Q9UGI9); experiment: Inhibition of human AMPK assessed as enzyme residual activity at 100 nM by radiometric filter binding assay relative to control; type: protein-complex assay
# [2] = target: SRSF protein kinase 1 (Homo sapiens) (UniProt Q96SB4); experiment: Inhibition of human SRPK1 assessed as enzyme residual activity at 100 nM by radiometric filter binding assay relative to control
# [3] = target: Glycogen synthase kinase-3 beta (Homo sapiens) (UniProt P49841); experiment: Inhibition of human GSK3beta assessed as enzyme residual activity at 100 nM by radiometric filter binding assay relative to control
# [4] = target: Ribosomal protein S6 kinase alpha-1 (Homo sapiens) (UniProt Q15418); experiment: Inhibition of human RSK1 assessed as enzyme residual activity at 100 nM by radiometric filter binding assay relative to control
# [5] = target: Dual specificity protein kinase TTK (Homo sapiens) (UniProt P33981); experiment: Inhibition of human TTK assessed as enzyme residual activity at 100 nM by radiometric filter binding assay relative to control
# [6] = target: T1, Casein kinase II subunit alpha (Homo sapiens, UniProt P68400); experiment: Inhibition of human CK2alpha assessed as enzyme residual activity at 100 nM by radiometric filter binding assay relative to control
# [7] = target: Serine/threonine-protein kinase N2 (Homo sapiens) (UniProt Q16513); experiment: Inhibition of human PRK2 assessed as enzyme residual activity at 100 nM by radiometric filter binding assay relative to control
# [8] = target: Receptor-interacting serine/threonine-protein kinase 2 (Homo sapiens) (UniProt O43353); experiment: Inhibition of human RIPK2 assessed as enzyme residual activity at 100 nM by radiometric filter binding assay relative to control
# [9] = target: Calcium/calmodulin-dependent protein kinase type 1 (Homo sapiens) (UniProt Q14012); experiment: Inhibition of human CaMK1alpha assessed as enzyme residual activity at 100 nM by radiometric filter binding assay relative to control
# [10] = target: MAP/microtubule affinity-regulating kinase 3 (Homo sapiens) (UniProt P27448); experiment: Inhibition of human MARK3 assessed as enzyme residual activity at 100 nM by radiometric filter binding assay relative to control
# [11] = target: Serine/threonine-protein kinase D1 (Homo sapiens) (UniProt Q15139); experiment: Inhibition of human PKD1 assessed as enzyme residual activity at 100 nM by radiometric filter binding assay relative to control
# [12] = target: Dual specificity mitogen-activated protein kinase kinase 1 (Homo sapiens) (UniProt Q02750); experiment: Inhibition of human MKK1 assessed as enzyme residual activity at 100 nM by radiometric filter binding assay relative to control
# [13] = target: Serine/threonine-protein kinase pim-1 (Homo sapiens) (UniProt P11309); experiment: Inhibition of human PIM1 assessed as enzyme residual activity at 100 nM by radiometric filter binding assay relative to control
# [14] = target: Tyrosine-protein kinase SYK (Homo sapiens) (UniProt P43405); experiment: Inhibition of human SYK assessed as enzyme residual activity at 100 nM by radiometric filter binding assay relative to control
# [15] = target: Dual specificity tyrosine-phosphorylation-regulated kinase 1A (Homo sapiens) (UniProt Q13627); experiment: Inhibition of human DYRK1alpha assessed as enzyme residual activity at 100 nM by radiometric filter binding assay relative to control
# [16] = target: Serine/threonine-protein kinase 3 (Homo sapiens) (UniProt Q13188); experiment: Inhibition of human MST2 assessed as enzyme residual activity at 100 nM by radiometric filter binding assay relative to control
# [17] = target: Serine/threonine-protein kinase Sgk1 (Homo sapiens) (UniProt O00141); experiment: Inhibition of human SGK1 assessed as enzyme residual activity at 100 nM by radiometric filter binding assay relative to control
# [18] = target: Serine/threonine-protein kinase PAK 4 (Homo sapiens) (UniProt O96013); experiment: Inhibition of human PAK4 assessed as enzyme residual activity at 100 nM by radiometric filter binding assay relative to control
# [19] = target: Ribosomal protein S6 kinase alpha-5 (Homo sapiens) (UniProt O75582); experiment: Inhibition of human MSK1 assessed as enzyme residual activity at 100 nM by radiometric filter binding assay relative to control
# [20] = target: Proto-oncogene tyrosine-protein kinase LCK (Mus musculus) (UniProt P06240); experiment: Inhibition of mouse Lck assessed as enzyme residual activity at 100 nM by radiometric filter binding assay relative to control
# [21] = target: Mitogen-activated protein kinase kinase kinase 11 (Homo sapiens) (UniProt Q16584); experiment: Inhibition of human MLK3 assessed as enzyme residual activity at 100 nM by radiometric filter binding assay relative to control
# [22] = target: Mitogen-activated protein kinase 8 (Homo sapiens) (UniProt P45983); experiment: Inhibition of human JNK1 assessed as enzyme residual activity at 100 nM by radiometric filter binding assay relative to control
# [23] = target: High affinity nerve growth factor receptor (Homo sapiens) (UniProt P04629); experiment: Inhibition of human TRKA assessed as enzyme residual activity at 100 nM by radiometric filter binding assay relative to control
# [24] = target: Eukaryotic elongation factor 2 kinase (Homo sapiens) (UniProt O00418); experiment: Inhibition of human EF2K assessed as enzyme residual activity at 100 nM by radiometric filter binding assay relative to control
# [25] = target: T1, Casein kinase II subunit alpha; experiment: Displacement of ARC-1504/ARC-1513-5O from CK2alpha (unknown origin) (1 to 335 residues) assessed as photoluminescence lifetime using non-deoxygenated solution after 15 to 60 mins by luminescence assay
# [26] = target: Interleukin-1 receptor-associated kinase 4 (Homo sapiens) (UniProt Q9NWZ3); experiment: Inhibition of human IRAK4 assessed as enzyme residual activity at 100 nM by radiometric filter binding assay relative to control
# [27] = target: Serine/threonine-protein kinase TBK1 (Homo sapiens) (UniProt Q9UHD2); experiment: Inhibition of human TBK1 assessed as enzyme residual activity at 100 nM by radiometric filter binding assay relative to control
# [28] = target: Aurora kinase B (Homo sapiens) (UniProt Q96GD4); experiment: Inhibition of human AurB assessed as enzyme residual activity at 100 nM by radiometric filter binding assay relative to control
# [29] = target: Ribosomal protein S6 kinase beta-1 (Homo sapiens) (UniProt P23443); experiment: Inhibition of human S6K1 assessed as enzyme residual activity at 100 nM by radiometric filter binding assay relative to control
# [30] = target: RAC-alpha serine/threonine-protein kinase (Homo sapiens) (UniProt P31749); experiment: Inhibition of human PKBa assessed as enzyme residual activity at 100 nM by radiometric filter binding assay relative to control
# [31] = target: Proto-oncogene tyrosine-protein kinase Src (Homo sapiens) (UniProt P12931); experiment: Inhibition of human SRC assessed as enzyme residual activity at 100 nM by radiometric filter binding assay relative to control
# [32] = target: Insulin-like growth factor 1 receptor (Homo sapiens) (UniProt P08069); experiment: Inhibition of human IGF1R assessed as enzyme residual activity at 100 nM by radiometric filter binding assay relative to control
# T1 sequence (P68400 whole entry, looked up): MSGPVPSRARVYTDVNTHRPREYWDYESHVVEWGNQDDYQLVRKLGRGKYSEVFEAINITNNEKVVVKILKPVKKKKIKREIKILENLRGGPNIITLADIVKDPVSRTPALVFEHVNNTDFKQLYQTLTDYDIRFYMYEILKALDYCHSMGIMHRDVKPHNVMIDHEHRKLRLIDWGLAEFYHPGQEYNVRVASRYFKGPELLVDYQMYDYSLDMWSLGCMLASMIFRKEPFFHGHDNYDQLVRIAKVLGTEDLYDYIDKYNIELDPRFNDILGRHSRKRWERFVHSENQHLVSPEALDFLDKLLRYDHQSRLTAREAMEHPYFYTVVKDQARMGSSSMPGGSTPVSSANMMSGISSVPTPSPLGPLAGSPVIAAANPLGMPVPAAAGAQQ
# Chain of High affinity nerve growth factor receptor (Homo sapiens) (P04629 33-796 limits assumed): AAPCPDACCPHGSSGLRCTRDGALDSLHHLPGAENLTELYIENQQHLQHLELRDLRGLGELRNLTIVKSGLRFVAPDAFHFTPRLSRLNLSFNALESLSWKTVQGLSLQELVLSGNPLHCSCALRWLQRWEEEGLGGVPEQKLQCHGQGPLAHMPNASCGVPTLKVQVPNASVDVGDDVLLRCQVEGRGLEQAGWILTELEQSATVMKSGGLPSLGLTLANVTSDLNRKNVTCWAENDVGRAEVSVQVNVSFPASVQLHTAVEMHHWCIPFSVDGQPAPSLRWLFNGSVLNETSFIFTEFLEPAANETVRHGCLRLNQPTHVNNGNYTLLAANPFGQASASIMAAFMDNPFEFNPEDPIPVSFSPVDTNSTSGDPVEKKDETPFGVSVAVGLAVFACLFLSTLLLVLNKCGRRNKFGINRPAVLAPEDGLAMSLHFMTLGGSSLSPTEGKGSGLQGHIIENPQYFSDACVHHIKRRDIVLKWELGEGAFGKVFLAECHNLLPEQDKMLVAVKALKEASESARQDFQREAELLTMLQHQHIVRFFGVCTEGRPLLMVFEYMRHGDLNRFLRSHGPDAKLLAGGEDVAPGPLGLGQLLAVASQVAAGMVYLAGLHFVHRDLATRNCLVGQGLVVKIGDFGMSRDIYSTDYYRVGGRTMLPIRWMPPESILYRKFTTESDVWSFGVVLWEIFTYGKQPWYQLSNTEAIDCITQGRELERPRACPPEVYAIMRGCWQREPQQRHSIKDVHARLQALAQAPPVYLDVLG
# Chain of Serine/threonine-protein kinase N2 (Homo sapiens) (Q16513 whole entry, looked up): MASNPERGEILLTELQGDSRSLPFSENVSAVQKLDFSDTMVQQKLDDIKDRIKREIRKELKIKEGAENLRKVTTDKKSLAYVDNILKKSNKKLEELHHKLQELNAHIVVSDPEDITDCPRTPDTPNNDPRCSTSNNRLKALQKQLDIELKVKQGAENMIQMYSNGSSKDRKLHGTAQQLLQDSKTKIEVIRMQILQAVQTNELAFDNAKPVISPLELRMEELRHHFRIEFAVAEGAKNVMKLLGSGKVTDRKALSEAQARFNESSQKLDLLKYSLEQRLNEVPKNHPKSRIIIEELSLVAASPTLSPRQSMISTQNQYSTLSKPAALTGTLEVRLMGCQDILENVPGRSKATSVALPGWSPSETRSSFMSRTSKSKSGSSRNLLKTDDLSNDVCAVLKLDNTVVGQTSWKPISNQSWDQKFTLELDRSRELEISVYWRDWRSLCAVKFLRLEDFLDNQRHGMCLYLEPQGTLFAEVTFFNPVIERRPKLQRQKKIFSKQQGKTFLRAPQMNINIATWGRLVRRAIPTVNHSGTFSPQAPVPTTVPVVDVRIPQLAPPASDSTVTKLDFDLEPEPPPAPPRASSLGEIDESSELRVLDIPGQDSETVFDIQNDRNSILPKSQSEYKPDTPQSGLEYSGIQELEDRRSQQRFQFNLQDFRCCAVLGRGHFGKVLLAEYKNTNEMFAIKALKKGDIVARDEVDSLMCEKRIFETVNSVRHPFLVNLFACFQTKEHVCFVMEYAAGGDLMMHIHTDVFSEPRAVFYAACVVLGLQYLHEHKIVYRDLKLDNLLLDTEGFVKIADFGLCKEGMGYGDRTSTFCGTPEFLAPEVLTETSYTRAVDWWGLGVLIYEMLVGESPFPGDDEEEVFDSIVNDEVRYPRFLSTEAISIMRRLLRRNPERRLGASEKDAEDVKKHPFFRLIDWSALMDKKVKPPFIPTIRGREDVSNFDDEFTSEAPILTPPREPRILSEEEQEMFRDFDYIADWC
# Chain of Receptor-interacting serine/threonine-protein kinase 2 (Homo sapiens) (O43353 whole entry): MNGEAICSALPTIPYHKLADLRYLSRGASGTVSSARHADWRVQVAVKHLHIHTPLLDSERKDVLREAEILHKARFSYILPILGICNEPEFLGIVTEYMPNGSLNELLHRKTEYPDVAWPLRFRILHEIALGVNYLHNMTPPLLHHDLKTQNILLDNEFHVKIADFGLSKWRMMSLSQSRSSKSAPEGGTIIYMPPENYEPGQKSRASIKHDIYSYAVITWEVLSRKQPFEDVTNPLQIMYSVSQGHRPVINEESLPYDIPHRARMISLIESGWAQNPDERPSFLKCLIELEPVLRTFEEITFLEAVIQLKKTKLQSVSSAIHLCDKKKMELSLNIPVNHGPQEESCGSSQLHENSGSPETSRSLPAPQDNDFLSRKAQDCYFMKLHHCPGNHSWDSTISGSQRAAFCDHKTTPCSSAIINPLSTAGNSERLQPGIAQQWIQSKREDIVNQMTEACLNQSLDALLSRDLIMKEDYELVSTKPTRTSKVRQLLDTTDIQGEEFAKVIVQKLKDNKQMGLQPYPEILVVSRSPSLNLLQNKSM
# Chain of MAP/microtubule affinity-regulating kinase 3 (Homo sapiens) (P27448 whole entry, looked up): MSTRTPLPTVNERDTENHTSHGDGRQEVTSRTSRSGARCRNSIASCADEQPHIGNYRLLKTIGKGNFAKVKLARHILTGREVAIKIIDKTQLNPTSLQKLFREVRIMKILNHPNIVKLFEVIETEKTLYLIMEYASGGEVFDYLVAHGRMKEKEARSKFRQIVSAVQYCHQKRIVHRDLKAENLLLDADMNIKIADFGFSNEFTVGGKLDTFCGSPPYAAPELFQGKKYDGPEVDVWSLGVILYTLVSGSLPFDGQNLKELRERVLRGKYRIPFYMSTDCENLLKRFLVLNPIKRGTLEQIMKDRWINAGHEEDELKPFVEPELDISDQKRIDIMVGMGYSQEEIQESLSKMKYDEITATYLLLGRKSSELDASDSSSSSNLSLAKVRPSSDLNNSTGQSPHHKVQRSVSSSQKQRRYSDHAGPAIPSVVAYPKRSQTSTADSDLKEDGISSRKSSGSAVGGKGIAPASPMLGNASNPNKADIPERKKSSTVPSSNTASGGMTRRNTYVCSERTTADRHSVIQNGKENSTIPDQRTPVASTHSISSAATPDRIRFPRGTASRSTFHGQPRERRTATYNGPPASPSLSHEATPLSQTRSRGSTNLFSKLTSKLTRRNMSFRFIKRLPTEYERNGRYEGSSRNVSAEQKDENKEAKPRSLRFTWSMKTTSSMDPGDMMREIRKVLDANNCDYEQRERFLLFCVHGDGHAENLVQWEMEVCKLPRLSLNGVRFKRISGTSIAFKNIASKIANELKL
# Chain of Serine/threonine-protein kinase D1 (Homo sapiens) (Q15139 whole entry, looked up): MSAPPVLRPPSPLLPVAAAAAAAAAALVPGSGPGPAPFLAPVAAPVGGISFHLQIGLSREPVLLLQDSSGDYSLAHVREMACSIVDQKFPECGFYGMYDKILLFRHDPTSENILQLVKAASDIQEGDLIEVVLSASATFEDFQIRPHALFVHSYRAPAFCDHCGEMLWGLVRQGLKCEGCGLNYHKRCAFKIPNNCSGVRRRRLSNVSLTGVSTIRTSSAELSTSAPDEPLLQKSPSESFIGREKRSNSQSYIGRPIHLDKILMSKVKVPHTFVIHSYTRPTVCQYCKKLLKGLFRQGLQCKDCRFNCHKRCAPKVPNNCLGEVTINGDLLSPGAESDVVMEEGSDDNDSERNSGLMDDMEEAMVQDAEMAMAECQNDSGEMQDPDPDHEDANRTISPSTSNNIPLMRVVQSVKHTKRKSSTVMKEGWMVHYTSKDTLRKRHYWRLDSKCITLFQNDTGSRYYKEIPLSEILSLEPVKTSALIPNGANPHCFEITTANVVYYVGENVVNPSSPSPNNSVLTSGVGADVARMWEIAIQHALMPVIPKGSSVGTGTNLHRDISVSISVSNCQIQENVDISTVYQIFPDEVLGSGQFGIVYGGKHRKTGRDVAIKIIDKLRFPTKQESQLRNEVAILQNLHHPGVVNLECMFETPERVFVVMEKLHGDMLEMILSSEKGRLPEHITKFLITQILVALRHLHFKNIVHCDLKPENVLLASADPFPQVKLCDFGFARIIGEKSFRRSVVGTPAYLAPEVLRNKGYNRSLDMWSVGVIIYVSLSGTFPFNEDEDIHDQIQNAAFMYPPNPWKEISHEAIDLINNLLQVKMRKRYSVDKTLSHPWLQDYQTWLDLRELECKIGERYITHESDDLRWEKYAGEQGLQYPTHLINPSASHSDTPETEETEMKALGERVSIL
# Chain of RAC-alpha serine/threonine-protein kinase (Homo sapiens) (P31749 whole entry): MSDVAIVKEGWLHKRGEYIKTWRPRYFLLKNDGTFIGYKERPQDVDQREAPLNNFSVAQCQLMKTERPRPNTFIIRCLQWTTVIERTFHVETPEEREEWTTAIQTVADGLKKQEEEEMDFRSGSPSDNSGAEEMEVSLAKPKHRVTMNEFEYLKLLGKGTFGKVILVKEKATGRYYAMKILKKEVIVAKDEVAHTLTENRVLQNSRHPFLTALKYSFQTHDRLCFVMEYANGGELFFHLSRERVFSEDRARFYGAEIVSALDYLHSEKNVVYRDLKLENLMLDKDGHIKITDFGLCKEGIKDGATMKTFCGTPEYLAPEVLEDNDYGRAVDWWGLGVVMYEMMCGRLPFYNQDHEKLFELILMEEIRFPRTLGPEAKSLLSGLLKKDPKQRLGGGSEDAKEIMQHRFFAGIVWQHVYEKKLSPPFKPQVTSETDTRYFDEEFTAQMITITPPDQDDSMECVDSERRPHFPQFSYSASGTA
smiles,measurement,setting,value
NCCCC[C@@H](NC(=O)[C@@H](CC(=O)O)NC(=O)[C@@H](CC(=O)O)NC(=O)[C@@H](CC(=O)O)NC(=O)[C@@H](CC(=O)O)NC(=O)[C@@H](CC(=O)O)NC(=O)[C@@H](CC(=O)O)NC(=O)CCCCCNC(=O)CCC(=O)Nc1ncc(-c2ccc(C(=O)O)cc2)s1)C(=O)O,Activity,[1],69%
same,Activity,[2],69%
same,Activity,[3],19%
same,Activity,[4],101%
same,Activity,[5],85%
same,Activity,[6],1.9%
same,Activity,[7],109%
same,Activity,[8],85%
same,Activity,[9],111%
same,Activity,[10],99%
same,Activity,[11],117%
same,Activity,[12],88%
same,Activity,[13],91%
same,Activity,[14],122%
same,Activity,[15],11.5%
same,Activity,[16],101%
same,Activity,[17],97%
same,Activity,[18],101%
same,Activity,[19],115%
same,Activity,[20],101%
same,Activity,[21],69%
same,Activity,[22],86%
same,Activity,[23],88%
same,Activity,[24],106%
same,Time,[25],82 microsec
same,Activity,[26],102%
same,Activity,[27],78%
same,Activity,[28],129%
same,Activity,[29],104%
same,Activity,[30],105%
same,Activity,[31],103%
same,Activity,[32],143%
